What was measured:
[1] = tested on: intestinal epithelial (CACO2) cells; assay: Intracellular amino acids in intestinal epithelial cells; assay type: cell-based
Procedure: When the cells reached about 80% confluency, fresh glutamine was added to 2 mM. […] After 6.5 h of incubation, cultures were washed twice with phosphate buffered saline and extracted with 100 μL 1M perchloric acid. Extracts were neutralized with 30 μL of 5M potassium carbonate, centrifuged, and analyzed by HPLC for nucleotides, as described in Di Pierro et al. 1995, and for amino acids, as described in Lo et al. 1998. Results are shown in FIG. 5A (amino acids) and FIG. 5B (nucleotides).

microglia (BV-2) cells = assay: Inhibition of microglial glutamate secretion; assay type: cell-based; settings: Mus musculus
Procedure: As described in Wood, glutamate efflux from microglia is dependent on the presence of added external glutamine. […] Therefore, the concentration of glutamate in the culture medium can be used directly as a measure of glutamate production by these cells.
In assaying the invention compounds, microglia (BV-2) cells were cultured using standard methods, as described in Example 4. On the day of the experiment, cells were incubated in glutamine free medium for 1 to 1.5 hours, then glutamine and test compounds, dissolved in glutamine free medium, were added. Aliquots were removed at 2 h and 4 h for glutamate analysis.
Inhibition of Microglial Glutamate Secretion
BV-2 cells were cultured in 24 well plates using Dulbeccos minimal essential medium containing 10% heat inactivated fetal bovine serum, and grown to 70-80% confluency before use. On the day of the experiment, cells were placed in glutamine free medium for 1 to 1.5 hours. […] This solution was used to replace one half of the 0.5 mL culture medium volume at the end of the glutamine free incubation. Aliquots of 10 μL medium were removed at 2 h and 4 h and placed in 96 well microtiter plates with 90 μL DMF/water (1:9) for glutamate analysis.

thrombin = thrombin (Homo sapiens, UniProt P00734); assay: Specificity: effect on mechanistically related enzyme; assay type: biochemical; settings: at 30 μM (data not shown)
Procedure: (§1) Specificity for glutaminase was evaluated at two levels. Compounds were evaluated for specific interactions with several thiol hydrolases (cathepsin B, caspase-9, calpain-1, and […]). These are cysteine proteases which are believed to function by a mechanisms similar to that of glutaminase. Compounds were also evaluated for effects on intracellular amino acids and nucleotides in CACO2 (intestinal epithelial) cells (Example 5), and for effects on amino acids in primary cultures of cerebellar neurons (granule cells) and astrocytes (Examples 6-7). These measurements reflect interactions with other glutamine utilizing enzymes involved in amino acid and nucleic acid biosynthesis and homeostasis. For example, a decrease in cytidine triphosphate (CTP) and an increase in uridine triphosphate (UTP) on treatment with DON (6-diazo-5-oxo-L-norleucine), a known nonselective antiglutamine affinity label, is indicative of inhibition of the activity of CTP synthetase, for which UTP is the substrate and CTP the product.

cathespin B = cathespin B (Homo sapiens, UniProt P07858); assay: as above; assay type: biochemical; settings: at 30 μM (data not shown)
Procedure: as §1

calpain 1 = biological target: T1, calpain 1 (Homo sapiens, UniProt P07384); assay: as above; assay type: biochemical; settings: at 30 μM (data not shown)
T1 sequence (P07384 1-714): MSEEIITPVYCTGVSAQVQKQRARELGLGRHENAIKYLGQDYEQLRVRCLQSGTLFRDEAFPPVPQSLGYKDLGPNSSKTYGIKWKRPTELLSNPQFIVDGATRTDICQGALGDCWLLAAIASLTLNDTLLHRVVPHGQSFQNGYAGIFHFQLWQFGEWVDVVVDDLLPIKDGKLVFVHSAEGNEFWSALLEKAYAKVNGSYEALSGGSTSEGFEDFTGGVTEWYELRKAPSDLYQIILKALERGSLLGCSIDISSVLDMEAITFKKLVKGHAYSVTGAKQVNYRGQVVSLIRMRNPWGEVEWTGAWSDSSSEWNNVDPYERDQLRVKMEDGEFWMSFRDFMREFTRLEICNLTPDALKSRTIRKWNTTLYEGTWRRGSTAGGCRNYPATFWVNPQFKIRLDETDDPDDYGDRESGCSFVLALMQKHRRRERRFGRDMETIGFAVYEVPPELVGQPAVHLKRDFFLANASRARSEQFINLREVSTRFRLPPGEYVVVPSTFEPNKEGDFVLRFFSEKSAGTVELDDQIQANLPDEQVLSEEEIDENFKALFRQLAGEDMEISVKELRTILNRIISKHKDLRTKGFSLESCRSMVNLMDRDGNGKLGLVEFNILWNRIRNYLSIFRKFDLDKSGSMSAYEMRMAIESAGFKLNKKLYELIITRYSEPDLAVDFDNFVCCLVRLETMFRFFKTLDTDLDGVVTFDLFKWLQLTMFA
T1 sequence (P04632 1-268 partner): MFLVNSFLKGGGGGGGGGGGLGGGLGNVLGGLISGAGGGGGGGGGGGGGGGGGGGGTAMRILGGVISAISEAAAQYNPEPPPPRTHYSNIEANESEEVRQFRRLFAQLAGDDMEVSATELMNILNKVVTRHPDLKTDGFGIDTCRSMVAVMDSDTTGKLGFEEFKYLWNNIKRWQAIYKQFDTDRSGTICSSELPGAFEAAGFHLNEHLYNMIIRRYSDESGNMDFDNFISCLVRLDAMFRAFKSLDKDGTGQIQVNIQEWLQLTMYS
Procedure: as §1

caspase 9 = biological target: T2, caspase 9 (Homo sapiens, UniProt P55211); assay: as above; assay type: biochemical; settings: at 30 μM (data not shown)
T2 sequence (P55211 1-416): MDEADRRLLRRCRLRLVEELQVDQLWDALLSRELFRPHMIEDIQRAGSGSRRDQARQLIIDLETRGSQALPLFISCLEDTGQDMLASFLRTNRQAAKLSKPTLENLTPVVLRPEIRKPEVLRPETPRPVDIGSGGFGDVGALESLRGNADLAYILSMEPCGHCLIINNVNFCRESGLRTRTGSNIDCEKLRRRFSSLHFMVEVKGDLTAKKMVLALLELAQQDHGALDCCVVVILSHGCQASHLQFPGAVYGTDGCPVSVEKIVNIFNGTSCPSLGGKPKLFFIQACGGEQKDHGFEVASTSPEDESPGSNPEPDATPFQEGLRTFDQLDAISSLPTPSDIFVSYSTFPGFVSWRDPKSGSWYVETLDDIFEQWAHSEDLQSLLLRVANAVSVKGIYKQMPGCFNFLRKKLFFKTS
Procedure: as §1

[2] = CACO2, 10 nM to 10 μM, 6.5 h, FIG. 5A

O=C(Cc1ccccc1)Nc1nnc(CCSCCc2nnc(NC(=O)Cc3ccccc3)s2)s1 [SNX-1770, bis-2′-[5-(phenylacetamido)-1,3,4-thiadiazol-2-yl]ethyl sulfide]
Effect on glutamate in cell extracts [1, 2]: dose dependent decrease | Effect on glycine or taurine in cell extracts [1, 2]: no effect | Lowering of cellular glutamate ([1]; CACO2 cells, partial and specific): ~30% | Effect on intracellular (non-glutamate) amino acids, including serine, glycine, arginine, alanine, taurine ([1]; at 10 μM, intestinal epithelial cells): no effect | inhibition at 10 µM (microglia (BV-2) cells; BV-2, at 10 μM, read-out: Inhibition of glutamate efflux by microglia): ~85% | IC50 (microglia (BV-2) cells; BV-2 cells, glutamine added, FIG. 4, read-out: IC50, inhibition of glutamate efflux by microglia): 80 to 120 nM | Effect on thrombin (thrombin): Nor did it have any effect | Effect on cathespin B (cathespin B): Nor did it have any effect | Effect on calpain 1 (calpain 1): Nor did it have any effect | Effect on caspase 9 (caspase 9): Nor did it have any effect

From patent publication US6451828B1, “Selective inhibition of glutaminase by bis-thiadiazoles” (priority 2000, dated 2002)
